Entries after “also recorded” stand apart in the source; their conditions may differ.
What was measured:
[1] = system: Erk1/Erk2 phosphorylation ratio in Aβ(1-42)-treated human fibroblasts; assay: Bryostatin reversal of the Aβ(1-42)-induced Alzheimer's phenotype (ADSMB) in control fibroblasts; type: cell-based; settings: AC cell lines, 1.0 μM Aβ(1-42) 24 hrs followed by 0.1 nM bryostatin 20 min
Experimental: Preparation of Aβ(1-42) solution: Initially 1 mg of Aβ(1-42) was dissolved in hexa-fluoroisopropanol (Sigma, St. Louis, Mo.) at a concentration of 3 mM and separated into aliquots in sterile microcentrifuge tubes. Hexa-fluoroisopropanol was removed under vacuum and lyophilized. The Aβ(1-42) films were stored at −20° C. under dry conditions until use. 5 mM Aβ(1-42) stock solution was prepared from the stored Aβ(1-42) in DMSO just before the experiment. 1.0 μM stock solution was prepared in DMEM medium (supplemented with 10% serum and penicillin/streptomycin) by dissolving Aβ(1-42) from a DSMO stock solution. […] Total Erk1, Erk2 and the phosphorylated forms of Erk1 and Erk2 (p-Erk1, p-Erk2) were determined using specific antibodies: anti-regular Erk1/2 and anti-phospho ERK1/2. […]
Signals of the Western blot protein bands were scanned with a Fuji LAS-1000 Plus scanner. The intensity of Erk1, Erk2, p-Erk1 and p-Erk2 were measured from scanned protein bands by a specially designed software developed by Dr. Nelson in our Institute (Blanchette Rockefeller Neurosciences Institute, Rockville, Md.). The intensity was measured by strip densitometry. The protein bands were selected by strip and each pixel density was calculated after background subtraction by the software. The ratios of p-Erk1/p-Erk2 were calculated from sample (BK+) and control (BK−) respectively. […]

AD-transgenic mice = settings: chronic exposure; cited from earlier work
PKC = settings: human fibroblasts; cited from earlier work
[2] = system: Aβ(1-42) levels in the brains; settings: transgenic mice with human AD genes; cited from earlier work
[3] = system: Erk1/Erk2 phosphorylation ratio in non-AD control (AC) cells; assay: Aβ(1-42) induction of the Alzheimer's phenotype (ADSMB, bradykinin-induced p-Erk1/p-Erk2 ratio) in control fibroblasts; type: cell-based, human; settings: for ADSMB: then 10 nM bradykinin 10 min
Experimental: Preparation of Aβ(1-42) solution: Initially 1 mg of Aβ(1-42) was dissolved in hexa-fluoroisopropanol (Sigma, St. Louis, Mo.) at a concentration of 3 mM and separated into aliquots in sterile microcentrifuge tubes. Hexa-fluoroisopropanol was removed under vacuum and lyophilized. The Aβ(1-42) films were stored at −20° C. under dry conditions until use. 5 mM Aβ(1-42) stock solution was prepared from the stored Aβ(1-42) in DMSO just before the experiment. 1.0 μM stock solution was prepared in DMEM medium (supplemented with 10% serum and penicillin/streptomycin) by dissolving Aβ(1-42) from a DSMO stock solution. DMEM medium containing 1.0 μM Aβ(1-42) was added to non-AD control (AC) cells at 90-100% confluence stage in 25 mL cultured flask and kept at cell culture incubator (at 37° C. with 5% CO2) for 24 hrs. Cells were ‘starved’ in serum free medium (DMEM) for 16 hours. 10 nM bradykinin (in DMSO) solution was prepared in DMEM medium with 10% serum. 7 mL of 10 nM BK solution were added to the 25 mL cultured flask and incubated at 37° C. for 10 min. For the controls, the same amount of DMSO was added in DMEM medium with 10% serum. 7 mL of this medium with DMSO (<0.01%) were added to the 25 mL cultured flask and incubated at 37° C. for 10 min. After washing four times with cold (4° C.) 1×PBS, flasks were kept in a dry ice/ethanol mixture for 15 min. Flasks were removed from the dry ice/ethanol mixture and then 100 μL of lysis buffer (10 mM Tris, pH 7.4, 150 mM NaCl, 1 mM EDTA, 1 mM EGTA, 0.5% NP-40, 1% Triton X-100, 1% protease inhibitor cocktail, 1% ser/thr/tyrosine phosphatase inhibitor cocktails) was added into each flask. Flasks were kept on an end-to end shaker in a cold room (4° C.) for 30 min and cells were collected from each flask with a cell scraper. Cells were sonicated and then centrifuged at 14000 rpm for 15 min, and the supernatant was used for Western blotting after total protein assay. Total Erk1, Erk2 and the phosphorylated forms of Erk1 and Erk2 (p-Erk1, p-Erk2) were determined using specific antibodies: anti-regular Erk1/2 and anti-phospho ERK1/2. At least three bradykinin treated flasks (BK+) and correspondingly three control flasks (BK−) were included for each cell line to minimize errors in measurement.
Signals of the Western blot protein bands were scanned with a Fuji LAS-1000 Plus scanner. The intensity of Erk1, Erk2, p-Erk1 and p-Erk2 were measured from scanned protein bands by a specially designed software developed by Dr. Nelson in our Institute (Blanchette Rockefeller Neurosciences Institute, Rockville, Md.). The intensity was measured by strip densitometry. The protein bands were selected by strip and each pixel density was calculated after background subtraction by the software. The ratios of p-Erk1/p-Erk2 were calculated from sample (BK+) and control (BK−) respectively. The following formula was used to distinguish between AD and non-AD cases: ADSMB=[p-Erk1/p-Erk2]^BK+−[p-Erk1/p-Erk2]^BK− ADSMB=Alzheimer's Disease-Specific Molecular Biomarker

Molecule | ADSMB after Aβ(1-42) then bryostatin treatment (in words) [1] | ADSMB after Aβ(1-42) then bryostatin treatment (in words) ([1]; listed as bryostatin) | survival (AD-transgenic mice) | PKC activation (PKC) | Aβ(1-42) levels in the brains [2] | ADSMB Average ± SE ([3]; average of AC cell lines, 1.0 μM Aβ(1-42) 24 hrs, P < 0.001 vs control) | ADSMB ([3]; cell line AG06959, 1.0 μM Aβ(1-42) 24 hrs) | ADSMB ([3]; cell line AG07732, 1.0 μM Aβ(1-42) 24 hrs) | ADSMB ([3]; cell line AG09977, 1.0 μM Aβ(1-42) 24 hrs) | ADSMB ([3]; cell line AG11363, 1.0 μM Aβ(1-42) 24 hrs) | ADSMB after Aβ(1-42) treatment (in words) ([3]; control (non-AD) cell lines, 1.0 μM Aβ(1-42), 24 hours)
CCC/C=C/C=C/C(=O)O[C@H]1/C(=C/C(=O)OC)C[C@H]2C[C@H]([C@@H](C)O)OC(=O)C[C@H](O)C[C@@H]3C[C@H](OC(C)=O)C(C)(C)[C@](O)(C[C@@H]4C/C(=C/C(=O)OC)C[C@H](/C=C/C(C)(C)[C@]1(O)O2)O4)O3 [Bryostatin] | entirely reversed | small and negative | greatly increased survival | enhance PKC activation | reduce Aβ(1-42) levels | – | – | – | – | – | –
Beta amyloid (1-42) [Aβ] | – | – | – | – | – | 0.13 ± 0.01 | 0.13 | 0.12 | 0.13 | 0.16 | abnormal positively valued ADSMB phenotype; also recorded: higher and positive

From patent publication US9797913B2, “Alzheimer's disease-specific alterations of the ERK1/ERK2 phosphorylation ratio-alzheimer's disease-specific molecular biomarkers (ADSMB)” (BLANCHETTE ROCKEFELLER NEUROSCIENCES INSTITUTE, priority 2005, dated 2017)
